Measurements published in PMC10483858 (Molecular Cancer, 2023).
pEC50: −log10 of the molar value.

Columns and labels:
[1] = test system: hPD-1/mPD-L1 immune checkpoint (Jurkat-ECs with B16-F10/TCRAct cells); conditions: ref [12]; cited from earlier work
Method: To evaluate the bioactivity of the pAC65 peptide, cell-based immune checkpoint blockade assays, T-cell activation (TCA) assay, and a viability assay were performed.

[2] = test system: hPD-1/hPD-L1 immune checkpoint (Jurkat-ECs with CHO/TCRAct/PD-L1 cells); test: Immune checkpoint blockade (ICB) assay, hPD-1/hPD-L1 setup; format: cell-based, human; conditions: for blockade of hPD-1/hPD-L1, restored activation of Jurkat-ECs (in words): 24-hour incubation, in parallel to hPD-1/mPD-L1 assay, Fig. 2C
Method: (§1) The peptide was tested along with three therapeutic antibodies, atezolizumab, avelumab, and durvalumab.
(§2) Data points represent mean ± SD values from 4–6 independent experiments. […] Triton X-100-treated cells and cells without the addition of a Redox Dye were used as baseline controls. […] In the assay, three antibodies (atezo. – atezolizumab, ave. – avelumab, durva. – durvalumab) and the peptide pAC65 were used. […] The graphs show fractions of positive cells and represent cumulative data from 3–4 donors.
These cell lines were cultured in RPMI 1640 medium (Biowest) supplemented with 10% fetal bovine serum (FBS, Biowest) and […] L-glutamine (Biowest). The selection antibiotics: G418 (250 μg/mL, InvivoGen) and Hygromycin B Gold (50 μg/mL, InvivoGen) were also added to the culture medium as per application.
The assay was performed according to the manufacturer’s protocol (Promega). […] The dilutions of monoclonal antibodies were prepared in the assay buffer. Followed by a 6-hour (routinely) or 24-hour (for testing bioactivity in parallel to the hPD-1/mPD-L1 ICB assay) incubation at 37°C and 5% CO2, and an additional 20 min of incubation with the luminescence reagent (Bio-Glo™ Luciferase Assay System, Promega) at room temperature, activation of Jurkat ECs, reflected by luciferase activity, was monitored by luminescence measurements on a Spark microplate reader (Tecan). […] Data points represent mean ± SD values from four to eight independent experiments. EC50 values as half-maximal effective concentrations were calculated from the Hill curve fitting to the experimental data using Origin Pro 2020 software (OriginLab).

[3] = test system: PD-L1/CD80 and PD-1/PD-L1 pathways; conditions: ref [14]; cited from earlier work
[4] = test system: hPD-1/mPD-L1 immune checkpoint (Jurkat-ECs with B16-F10/TCRAct cells); test: Immune checkpoint blockade (ICB) assay, hPD-1/mPD-L1 setup; format: cell-based, human (hPD-1); conditions: B16-F10/TCRAct cells treated with 20 ng/ml mouse IFN-γ for 48 h; 24 h co-culture, Fig. 2D; three independent experiments
Method: as §1, §2
Mouse skin melanoma B16-F10 cell line was purchased from the American Type Culture Collection (ATCC) and cultured in RPMI 1640 medium (Biowest) supplemented with 10% fetal bovine serum (FBS, Biowest) and […] L-glutamine (Biowest). The generation of the B16-F10 cells overexpressing TCR-Activator (maAPCs) clone 3A5 was described in our previous work (Magiera-Mularz et al., 2021). […]
B16-F10/TCRAct cells (maAPCs) were seeded on 96-well white bottom plates at the density of 2,000 cells/well and treated with 20 ng/ml of mouse recombinant IFN-γ (Thermo Fisher Scientific) for 48 hours before the ICB assay. […] After 24 hours (37°C, 5% CO2) and 20 min of additional incubation with the luminescence reagent (Bio-Glo™ Luciferase Assay System, Promega) at room temperature, activation of Jurkat ECs was monitored by luminescence measurements on a Spark microplate reader (Tecan). […]

Row | Molecule | specificity towards hPD-L1 / failure to target mouse PD-L1 (previous studies) [1] | blockade of hPD-1/hPD-L1, restored activation of Jurkat-ECs (in words) [2] | pEC50 ([2]; luciferase luminescence, 6-hour incubation (routinely), 37°C, 5% CO2, 0.1% DMSO (pAC65), Hill fit, 4–6 independent experiments, read-out: EC50, activation of Jurkat-ECs) | blocking of both PD-L1/CD80 and PD-1/PD-L1 pathways [3] | blockade of hPD-1/mPD-L1, restored activation of Jurkat-ECs (in words) [4]
1 | Cc1c(COc2cc(OCc3cccc(C#N)c3)c(CN3C[C@H](O)C[C@@H]3C(=O)O)cc2Cl)cccc1-c1ccc2c(c1)OCCO2 [BMS-1166] | specificity towards the hPD-L1 protein | – | – | – | –
2 | Cc1cc(CN[C@H](CO)C(=O)O)c(OCc2cccc(C#N)c2)cc1OCc1cccc(-c2ccc3c(c2)OCCO3)c1C [BMS-1001] | specificity towards the hPD-L1 protein | – | – | – | –
3 | atezolizumab: therapeutic PD-L1-blocking monoclonal antibody (Selleckchem) | – | efficiently blocked the hPD-1/hPD-L1 immune checkpoint | 9.85 | Blocking of both PD-L1/CD80 and PD-1/PD-L1 pathways has also been documented | –
4 | avelumab: therapeutic PD-L1-blocking monoclonal antibody (MedChemExpress) | – | restored the activation of Jurkat-ECs blocked with either the hPD-L1-expressing or mPD-L1 expressing cells | – | Blocking of both PD-L1/CD80 and PD-1/PD-L1 pathways has also been documented | restored the activation of Jurkat-ECs blocked with either the hPD-L1-expressing or mPD-L1 expressing cells
5 | durvalumab: therapeutic PD-L1-blocking monoclonal antibody (Selleckchem) | – | efficiently blocked the hPD-1/hPD-L1 immune checkpoint | – | Blocking of both PD-L1/CD80 and PD-1/PD-L1 pathways has also been documented | atezolizumab but not durvalumab was able to block the hPD-1/mPD-L1 immune checkpoint
